Consider 43 compounds from patent US20230047816A1 (priority 2018, published 2023).

Sequence of Recombinant full length human PFKFB3 (Q16875 whole entry): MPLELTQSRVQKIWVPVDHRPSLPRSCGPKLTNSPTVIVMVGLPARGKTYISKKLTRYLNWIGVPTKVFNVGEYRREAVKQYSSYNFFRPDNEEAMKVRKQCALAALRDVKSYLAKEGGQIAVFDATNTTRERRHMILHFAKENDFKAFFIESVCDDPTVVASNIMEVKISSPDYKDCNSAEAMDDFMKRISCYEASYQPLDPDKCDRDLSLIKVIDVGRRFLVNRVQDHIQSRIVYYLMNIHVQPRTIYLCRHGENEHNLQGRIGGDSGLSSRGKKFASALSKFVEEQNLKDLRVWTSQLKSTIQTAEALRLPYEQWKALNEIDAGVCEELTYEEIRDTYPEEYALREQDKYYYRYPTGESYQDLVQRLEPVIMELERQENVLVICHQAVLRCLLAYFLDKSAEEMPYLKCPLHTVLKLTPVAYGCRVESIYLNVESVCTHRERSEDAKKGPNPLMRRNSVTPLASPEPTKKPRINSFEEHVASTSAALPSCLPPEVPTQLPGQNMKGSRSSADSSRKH

This assay has as its target Recombinant full length human PFKFB3 (Homo sapiens, UniProt Q16875). Nature of the assay: PFKFB3 kinase activity assay (ADP production, ADP-Glo).
`O=C(O)c1cc(C(=O)O)c(C(=O)Nc2cc(-c3ccc(Cl)cc3Cl)ccc2C(=O)O)cc1O` [Example 43, 4-({4-carboxy-2′,4′-dichloro-[1,1′-biphenyl]-3-yl}carbamoyl)-6-hydroxybenzene-1,3-dicarboxylic acid]: the concentration for half-maximal inhibition (IC50) was below 500 nM.

`O=C(O)c1ccc2c(c1)C(=O)N(c1cc(-c3ccccc3)ccc1-c1nnn[nH]1)C2=O` [Example 43]: the IC50 lay within 500 to 2000 nM.

Turning to `O=C(O)c1cc(C(=O)Nc2cc(-c3ccc(Cl)cc3Cl)ccc2C(=O)O)c(C(=O)O)cc1O` [Example 44, 2-({4-carboxy-2′,4′-dichloro-[1,1′-biphenyl]-3-yl}carbamoyl)-5-hydroxybenzene-1,4-dicarboxylic acid], the concentration for half-maximal inhibition (IC50) was below 500 nM.

`COC(=O)c1ccc(-c2ccccc2)cc1N1C(=O)c2ccc(-c3nnn[nH]3)cc2C1=O` [Example 44]: the IC50 is 2000 to 5000 nM.

Consider `O=C(O)c1cc(C(=O)O)c(C(=O)Nc2cc(-c3ccc(F)c(F)c3)ccc2C(=O)O)cc1Cl` [Example 45, 4-({4-carboxy-3′,4′-difluoro-[1,1′-biphenyl]-3-yl}carbamoyl)-6-chlorobenzene-1,3-dicarboxylic acid], for which the 50% inhibitory concentration (IC50) was below 500 nM.

On to `O=C(O)c1ccc2c(c1)C(=O)N(c1cc(-c3ccc(F)cc3)ccc1C(=O)O)C2=O` [Example 45], for which the 50% inhibitory concentration (IC50) was below 500 nM.

On to `O=C(O)c1cc(C(=O)Nc2cc(-c3ccc(F)c(F)c3)ccc2C(=O)O)c(C(=O)O)cc1Cl` [Example 46, 2-({4-carboxy-3′,4′-difluoro-[1,1′-biphenyl]-3-yl}carbamoyl)-5-chlorobenzene-1,4-dicarboxylic acid], for which the IC50 is below 500 nM.

For the compound `O=C(O)c1ccc2c(c1)C(=O)N(c1cc(-c3cccc(F)c3)ccc1C(=O)O)C2=O` [Example 46], the half-inhibitory concentration (IC50) was below 500 nM.

As to `COc1ccc(-c2nnn[nH]2)c(N2C(=O)c3ccc(C(=O)O)cc3C2=O)c1` [Example 47, 2-[5-Methoxy-2-(1H-tetrazol-5-yl)phenyl]-1,3-dioxo-2,3-dihydro-1H-isoindole-5-carboxylic acid], the IC50 fell in the range of 500 to 2000 nM.

Turning to `O=C(O)c1ccc2c(c1)C(=O)N(c1cc(-c3cccs3)ccc1C(=O)O)C2=O` [Example 48, 2-(2-Carboxy-5-thiophen-2-yl-phenyl)-1,3-dioxo-2,3-dihydro-1H-isoindole-5-carboxylic Acid], the half-maximal inhibitory concentration (IC50) was below 500 nM.

On to `CN(C)CCOC(=O)c1ccc(-c2ccc(Cl)cc2Cl)cc1NC(=O)c1ccc(C(=O)N=S(C)(C)=O)cc1C(=O)O` [Example 49, 2-[(2′,4′-dichloro-4-{[2-(dimethylamino)ethoxy]carbonyl}-[1,1′-biphenyl]-3-yl)carbamoyl]-5-{[dimethyl(oxo)-λ^6-sulfanylidene]carbamoyl}benzoic acid], for which the 50% inhibitory concentration (IC50) is below 500 nM.

For the compound `O=C(O)c1ccc(-c2cccnc2)cc1N1C(=O)c2ccc(-c3c[nH]nn3)cc2C1=O` [Example 49], the IC50 was in the range of 2000 to 5000 nM.

On to `CN(C)CCCOC(=O)c1ccc(-c2ccc(Cl)cc2Cl)cc1NC(=O)c1cc(O)c(C(=O)O)cc1C(=O)O` [Example 51, 4-[(2′,4′-dichloro-4-{[3-(dimethylamino)propoxy]carbonyl}-[1,1′-biphenyl]-3-yl)carbamoyl]-6-hydroxybenzene-1,3-dicarboxylic acid], for which the IC50 is below 500 nM.

For the compound `O=C(O)c1ccc(-c2ccc(F)cc2F)cc1N1C(=O)c2ccc(-c3c[nH]nn3)cc2C1=O` [Example 51], the half-maximal inhibitory concentration (IC50) is below 500 nM.

Regarding `CC1(C)CCC(c2ccc(C(=O)O)c(NC(=O)c3cc(O)c(C(=O)O)cc3C(=O)O)c2)CC1` [Example 52, 4-{[2-carboxy-5-(4,4-dimethylcyclohexyl)phenyl]carbamoyl}-6-hydroxybenzene-1,3-dicarboxylic acid], the IC50 is below 500 nM.

In the case of `O=C(O)c1ccc2c(c1)C(=O)N(c1cc(-c3cccnc3)ccc1C(=O)O)C2=O` [Example 52], the IC50 was below 500 nM.

On to `CC1(C)CCN(c2ccc(C(=O)O)c(NC(=O)c3cc(O)c(C(=O)O)cc3C(=O)O)c2)CC1` [Example 53, 4-{[2-carboxy-5-(4,4-dimethylpiperidin-1-yl)phenyl]carbamoyl}-6-hydroxybenzene-1,3-dicarboxylic acid], for which the IC50 was below 500 nM.

As to `O=C(O)c1ccc2c(c1)C(=O)N(c1cc(-c3ccc(F)cc3F)ccc1C(=O)O)C2=O` [Example 53], the IC50 was below 500 nM.

For `CN(C)CCCOC(=O)c1ccc(-c2ccc(Cl)cc2Cl)cc1NC(=O)c1cc(C(=O)O)c(O)cc1C(=O)O` [Example 54, 2-[(2′,4′-dichloro-4-{[3-(dimethylamino)propoxy]carbonyl}-[1,1′-biphenyl]-3-yl)carbamoyl]-5-hydroxybenzene-1,4-dicarboxylic acid], the IC50 is below 500 nM.

On to `O=C1c2ccc(-c3c[nH]nn3)cc2C(=O)N1c1cc(-c2ccccc2)ccc1-c1nnn[nH]1` [Example 54], for which the 50% inhibitory concentration (IC50) fell in the range of 2000 to 5000 nM.

For the compound `CCOC(=O)c1ccc(-c2ccc(Cl)cc2Cl)cc1NC(=O)c1cc(O)c(C(=O)O)cc1C(=O)O` [Example 55, 4-{[2′,4′-dichloro-4-(ethoxycarbonyl)-[1,1′-biphenyl]-3-yl]carbamoyl}-6-hydroxybenzene-1,3-dicarboxylic acid], the concentration for half-maximal inhibition (IC50) is below 500 nM.

On to `COc1ccc(-c2ccc(C(=O)O)c(N3C(=O)c4ccc(C(=O)O)cc4C3=O)c2)cc1` [Example 55], for which the IC50 was below 500 nM.

On to `CC1(C)CCN(c2ccc(C(=O)O)c(NC(=O)c3cc(C(=O)O)c(O)cc3C(=O)O)c2)CC1` [Example 56, 2-{[2-carboxy-5-(4,4-dimethylpiperidin-1-yl)phenyl]carbamoyl}-5-hydroxybenzene-1,4-dicarboxylic acid], for which the IC50 was below 500 nM.

With `O=C(O)c1ccc(-c2cccs2)cc1N1C(=O)c2ccc(-c3c[nH]nn3)cc2C1=O` [Example 56], the 50% inhibitory concentration (IC50) fell in the range of 2000 to 5000 nM.

For `CC1(C)CCC(c2ccc(C(=O)O)c(NC(=O)c3cc(C(=O)O)c(O)cc3C(=O)O)c2)CC1` [Example 57, 2-{[2-carboxy-5-(4,4-dimethylcyclohexyl)phenyl]carbamoyl}-5-hydroxybenzene-1,4-dicarboxylic acid], the IC50 is below 500 nM.

As for `O=C(O)c1ccc(-c2ccc(F)cc2)cc1N1C(=O)c2ccc(-c3c[nH]nn3)cc2C1=O` [Example 57], the IC50 lay in the range of 2000 to 5000 nM.

For the compound `O=C(O)c1cc(C(=O)O)c(C(=O)Nc2cc(N3CC4CCC3C4)ccc2C(=O)O)cc1O` (stereo not shown) [Example 58, 4-[(5-{2-azabicyclo[2.2.1]heptan-2-yl}-2-carboxyphenyl)carbamoyl]-6-hydroxybenzene-1,3-dicarboxylic acid], the concentration for half-maximal inhibition (IC50) is below 500 nM.

For the compound `O=C(O)c1cc(C(=O)O)c(C(=O)Nc2cc(-c3ccc(Cl)cc3Cl)ccc2C(=O)O)cc1F` [Example 59, 4-({4-carboxy-2′,4′-dichloro-[1,1′-biphenyl]-3-yl}carbamoyl)-6-fluorobenzene-1,3-dicarboxylic acid], the IC50 was below 500 nM.

With `O=C(O)c1ccc(-c2ccccc2)cc1N1C(=O)c2ccc(-c3c[nH]nn3)cc2C1=O` [Example 59], the IC50 was below 500 nM.

As to `CCOC(=O)c1ccc(-c2ccc(Cl)cc2Cl)cc1NC(=O)c1cc(C(=O)O)c(O)cc1C(=O)O` [Example 60, 2-{[2′,4′-dichloro-4-(ethoxycarbonyl)-[1,1′-biphenyl]-3-yl]carbamoyl}-5-hydroxybenzene-1,4-dicarboxylic acid], the IC50 is below 500 nM.

As to `O=C(O)c1cc(-c2c[nH]cn2)ccc1N1C(=O)c2ccc(-c3c[nH]nn3)cc2C1=O` [Example 60], the 50% inhibitory concentration (IC50) is below 500 nM.

Regarding `O=C(O)c1cc(C(=O)Nc2cc(N3CC4CCC3C4)ccc2C(=O)O)c(C(=O)O)cc1O` (stereo not shown) [Example 61, 2-[(5-{2-azabicyclo[2.2.1]heptan-2-yl}-2-carboxyphenyl)carbamoyl]-5-hydroxybenzene-1,4-dicarboxylic acid], the half-maximal inhibitory concentration (IC50) is below 500 nM.

Take `Cn1cncc1-c1ccc(N2C(=O)c3ccc(-c4c[nH]nn4)cc3C2=O)c(C(=O)O)c1` [Example 61]: the 50% inhibitory concentration (IC50) was in the range of 5000 to 20000 nM.

With `CC1(C)CCC(c2ccc(C(=O)O)c(NC(=O)c3cc(F)c(C(=O)O)cc3C(=O)O)c2)CC1` [Example 63, 4-{[2-carboxy-5-(4,4-dimethylcyclohexyl)phenyl]carbamoyl}-6-fluorobenzene-1,3-dicarboxylic acid], the 50% inhibitory concentration (IC50) is below 500 nM.

In the case of `O=C(O)c1cc(-c2cnccn2)ccc1N1C(=O)c2ccc(-c3c[nH]nn3)cc2C1=O` [Example 63], the half-maximal inhibitory concentration (IC50) was in the range of 5000 to 20000 nM.

For the compound `CC1(C)CCC(c2ccc(C(=O)O)c(NC(=O)c3cc(C(=O)O)c(F)cc3C(=O)O)c2)CC1` [Example 64, 2-{[2-carboxy-5-(4,4-dimethylcyclohexyl)phenyl]carbamoyl}-5-fluorobenzene-1,4-dicarboxylic acid], the half-inhibitory concentration (IC50) is below 500 nM.

With `O=C(O)c1cc(-c2cncnc2)ccc1N1C(=O)c2ccc(-c3c[nH]nn3)cc2C1=O` [Example 64], the 50% inhibitory concentration (IC50) was below 20000 nM.

Turning to `CC(CN(C)C)OC(=O)c1ccc(-c2ccc(Cl)cc2Cl)cc1NC(=O)c1cc(O)c(C(=O)O)cc1C(=O)O` (stereo not shown) [Example 65, 4-{[2′,4′-dichloro-4-({[1-(dimethylamino)propan-2-yl]oxy}carbonyl)-[1,1′-biphenyl]-3-yl]carbamoyl}-6-hydroxybenzene-1,3-dicarboxylic acid], the 50% inhibitory concentration (IC50) is below 500 nM.

`Nc1ccc(-c2ccc(N3C(=O)c4ccc(-c5c[nH]nn5)cc4C3=O)c(C(=O)O)c2)cn1` [Example 65]: the IC50 fell in the range of 2000 to 5000 nM.

Regarding `CC(COC(=O)c1ccc(-c2ccc(Cl)cc2Cl)cc1NC(=O)c1cc(O)c(C(=O)O)cc1C(=O)O)N(C)C` (stereo not shown) [Example 66, 4-[(2′,4′-dichloro-4-{[2-(dimethylamino)propoxy]carbonyl}-[1,1′-biphenyl]-3-yl)carbamoyl]-6-hydroxybenzene-1,3-dicarboxylic acid], the half-inhibitory concentration (IC50) is below 500 nM.

Turning to `CN(C)CCOC(=O)c1ccc(-c2ccccc2)cc1N1C(=O)c2ccc(-c3c[nH]nn3)cc2C1=O` [Example 66], the IC50 was in the range of 2000 to 5000 nM.

For `CN1CCC(OC(=O)c2ccc(-c3ccc(Cl)cc3Cl)cc2NC(=O)c2cc(O)c(C(=O)O)cc2C(=O)O)C1` (stereo not shown) [Example 67, 4-[(2′,4′-dichloro-4-{[(1-methylpyrrolidin-3-yl)oxy]carbonyl}-[1,1′-biphenyl]-3-yl)carbamoyl]-6-hydroxybenzene-1,3-dicarboxylic acid], the IC50 was below 500 nM.

In the case of `O=C(OCCN1CCOCC1)c1ccc(-c2ccccc2)cc1N1C(=O)c2ccc(-c3c[nH]nn3)cc2C1=O` [Example 67], the IC50 lay in the range of 5000 to 20000 nM.
